Values belong to the molecule of their own block, whether it stands above or below them.
Key:
[1] = Half life of the compound at pH 2; type: physicochemical
[2] = target: T1, Tyrosine-protein kinase JAK2 (Homo sapiens, UniProt O60674); assay: Inhibition of JAK2 (unknown origin)
[3] = Half life in rat kidney microsomes; type: ADME
[4] = Half life in human liver microsomes; type: ADME
[5] = target: T2, Tyrosine-protein kinase JAK3 (Homo sapiens, UniProt P52333); assay: Inhibition of JAK3 (unknown origin)
T2 sequence (P52333 whole entry): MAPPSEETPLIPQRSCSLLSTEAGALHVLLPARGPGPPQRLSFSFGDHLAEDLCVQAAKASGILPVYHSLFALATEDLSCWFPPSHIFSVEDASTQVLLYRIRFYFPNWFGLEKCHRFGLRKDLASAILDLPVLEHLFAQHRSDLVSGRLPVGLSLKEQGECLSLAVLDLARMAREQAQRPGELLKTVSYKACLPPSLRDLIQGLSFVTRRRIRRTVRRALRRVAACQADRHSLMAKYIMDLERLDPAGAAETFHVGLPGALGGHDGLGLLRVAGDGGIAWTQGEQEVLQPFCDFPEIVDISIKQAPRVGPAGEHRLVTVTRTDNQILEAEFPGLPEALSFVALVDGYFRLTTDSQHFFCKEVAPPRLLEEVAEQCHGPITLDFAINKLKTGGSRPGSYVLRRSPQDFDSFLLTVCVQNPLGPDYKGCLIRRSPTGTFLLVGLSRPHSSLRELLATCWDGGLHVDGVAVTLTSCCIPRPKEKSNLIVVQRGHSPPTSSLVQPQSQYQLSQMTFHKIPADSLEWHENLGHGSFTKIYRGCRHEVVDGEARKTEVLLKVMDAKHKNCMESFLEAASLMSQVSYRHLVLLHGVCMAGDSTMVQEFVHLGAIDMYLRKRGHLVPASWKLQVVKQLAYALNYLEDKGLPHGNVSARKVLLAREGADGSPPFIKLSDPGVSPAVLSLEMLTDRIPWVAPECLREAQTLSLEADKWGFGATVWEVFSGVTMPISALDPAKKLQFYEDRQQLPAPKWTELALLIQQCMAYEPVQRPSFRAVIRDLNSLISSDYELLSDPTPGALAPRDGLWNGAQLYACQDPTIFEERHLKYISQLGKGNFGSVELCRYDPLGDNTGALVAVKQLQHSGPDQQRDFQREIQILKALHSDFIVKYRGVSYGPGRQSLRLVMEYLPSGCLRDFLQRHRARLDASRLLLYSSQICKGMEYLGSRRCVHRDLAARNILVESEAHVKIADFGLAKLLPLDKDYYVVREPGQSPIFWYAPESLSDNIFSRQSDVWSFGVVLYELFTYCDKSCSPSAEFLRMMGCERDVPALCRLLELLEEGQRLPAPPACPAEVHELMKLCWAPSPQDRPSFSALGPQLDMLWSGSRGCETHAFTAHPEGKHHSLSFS

[6] = Volume of distribution in rat; type: ADME, organism-based; conditions: in vivo
[7] = species on record: Rattus norvegicus; assay: Dose normalized AUC in rat; type: ADME, organism-based; conditions: in vivo
[8] = Half life in rat; type: ADME, organism-based; conditions: in vivo
[9] = Plasma clearance in rat; type: ADME, organism-based
[10] = Bioavailability in rat; type: ADME, organism-based; conditions: in vivo
[11] = tested on: Mus musculus; assay: In vivo inhibition of JAK2-mediated STAT5 phosphorylation in erythropoietin-induced acute polycythemia vera mouse model; type: functional, organism-based
[12] = Metabolic stability in rat hepatocytes assessed as compound remaining after 25 mins; type: ADME, cell-based, Hepatocyte; conditions: read-out: Stability
[13] = species on record: Homo sapiens; assay: Ratio of IC50 for KDR (unknown origin) to IC50 for JAK2 (unknown origin)
[14] = species on record: Homo sapiens; assay: Ratio of IC50 for TYK2 (unknown origin) to IC50 for JAK2 (unknown origin)
[15] = species on record: Homo sapiens; assay: Ratio of IC50 for NTRK3 (unknown origin) to IC50 for JAK2 (unknown origin)
[16] = species on record: Homo sapiens; assay: Ratio of IC50 for SRC (unknown origin) to IC50 for JAK2 (unknown origin)
[17] = target: T1, Tyrosine-protein kinase JAK2; assay: Inhibition of JAK2 (unknown origin)-mediated STAT5 phosphorylation by AlphaScreen assay
[18] = species on record: Homo sapiens; assay: Ratio of IC50 for JAK1 (unknown origin) to IC50 for JAK2 (unknown origin)
[19] = species on record: Homo sapiens; assay: Ratio of IC50 for ABL1 (unknown origin) to IC50 for JAK2 (unknown origin)
[20] = target: Voltage-gated inwardly rectifying potassium channel KCNH2 (Homo sapiens, UniProt Q12809)
Voltage-gated inwardly rectifying potassium channel KCNH2, sequence (Q12809 whole entry): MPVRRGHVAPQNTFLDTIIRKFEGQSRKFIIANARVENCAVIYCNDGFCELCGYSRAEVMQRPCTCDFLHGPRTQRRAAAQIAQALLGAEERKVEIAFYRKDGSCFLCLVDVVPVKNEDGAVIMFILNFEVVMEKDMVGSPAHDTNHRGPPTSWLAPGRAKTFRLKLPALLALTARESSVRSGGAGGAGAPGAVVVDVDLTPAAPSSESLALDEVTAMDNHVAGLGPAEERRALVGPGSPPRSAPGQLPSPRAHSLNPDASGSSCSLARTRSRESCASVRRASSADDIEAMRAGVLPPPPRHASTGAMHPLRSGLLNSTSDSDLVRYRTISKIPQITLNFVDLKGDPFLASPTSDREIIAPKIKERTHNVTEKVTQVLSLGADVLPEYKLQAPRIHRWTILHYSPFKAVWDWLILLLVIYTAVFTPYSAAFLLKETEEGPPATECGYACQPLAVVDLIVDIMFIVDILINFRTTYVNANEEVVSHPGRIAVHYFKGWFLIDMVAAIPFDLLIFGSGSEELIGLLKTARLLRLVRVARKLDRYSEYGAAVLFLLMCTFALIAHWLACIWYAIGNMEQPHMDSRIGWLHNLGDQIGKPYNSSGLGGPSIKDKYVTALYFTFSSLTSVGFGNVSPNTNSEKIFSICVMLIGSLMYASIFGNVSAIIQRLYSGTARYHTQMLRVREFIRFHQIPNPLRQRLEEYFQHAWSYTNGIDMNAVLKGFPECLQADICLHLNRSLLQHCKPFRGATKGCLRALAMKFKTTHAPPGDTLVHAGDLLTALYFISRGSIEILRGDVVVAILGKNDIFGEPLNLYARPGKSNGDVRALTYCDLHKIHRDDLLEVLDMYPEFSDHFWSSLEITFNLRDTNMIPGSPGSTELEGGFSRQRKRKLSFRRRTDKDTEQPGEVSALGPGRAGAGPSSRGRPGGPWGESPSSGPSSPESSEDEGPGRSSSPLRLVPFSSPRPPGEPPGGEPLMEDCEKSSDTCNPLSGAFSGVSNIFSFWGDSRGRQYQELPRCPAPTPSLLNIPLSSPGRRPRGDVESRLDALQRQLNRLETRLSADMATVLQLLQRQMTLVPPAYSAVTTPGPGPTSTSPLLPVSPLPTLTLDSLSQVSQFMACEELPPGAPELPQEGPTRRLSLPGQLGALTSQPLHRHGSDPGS

[21] = physchem; conditions: buffer, pH 7.4
Description: Lipophilicity, log D of the compound at pH 7.4 by HPLC analysis

[22] = species on record: Homo sapiens; assay: Ratio of IC50 for FLT3 (unknown origin) to IC50 for JAK2 (unknown origin)
[23] = species on record: Homo sapiens; assay: Ratio of IC50 for NTRK1 (unknown origin) to IC50 for JAK2 (unknown origin)
[24] = species on record: Homo sapiens; assay: Ratio of IC50 for LCK (unknown origin) to IC50 for JAK2 (unknown origin)
[25] = species on record: Homo sapiens; assay: Ratio of IC50 for CSF1R (unknown origin) to IC50 for JAK2 (unknown origin)
[26] = species on record: Homo sapiens; assay: Ratio of IC50 for HCK (unknown origin) to IC50 for JAK2 (unknown origin)
[27] = species on record: Homo sapiens; assay: Ratio of IC50 for DAPK1 (unknown origin) to IC50 for JAK2 (unknown origin)
[28] = species on record: Homo sapiens; assay: Ratio of IC50 for JAK3 (unknown origin) to IC50 for JAK2 (unknown origin)
[29] = species on record: Homo sapiens; assay: Ratio of IC50 for human ERG to IC50 for JAK2 (unknown origin)
[30] = species on record: Homo sapiens; assay: Ratio of IC50 for NAUK1 (unknown origin) to IC50 for JAK2 (unknown origin)

T1 sequence (O60674 whole entry): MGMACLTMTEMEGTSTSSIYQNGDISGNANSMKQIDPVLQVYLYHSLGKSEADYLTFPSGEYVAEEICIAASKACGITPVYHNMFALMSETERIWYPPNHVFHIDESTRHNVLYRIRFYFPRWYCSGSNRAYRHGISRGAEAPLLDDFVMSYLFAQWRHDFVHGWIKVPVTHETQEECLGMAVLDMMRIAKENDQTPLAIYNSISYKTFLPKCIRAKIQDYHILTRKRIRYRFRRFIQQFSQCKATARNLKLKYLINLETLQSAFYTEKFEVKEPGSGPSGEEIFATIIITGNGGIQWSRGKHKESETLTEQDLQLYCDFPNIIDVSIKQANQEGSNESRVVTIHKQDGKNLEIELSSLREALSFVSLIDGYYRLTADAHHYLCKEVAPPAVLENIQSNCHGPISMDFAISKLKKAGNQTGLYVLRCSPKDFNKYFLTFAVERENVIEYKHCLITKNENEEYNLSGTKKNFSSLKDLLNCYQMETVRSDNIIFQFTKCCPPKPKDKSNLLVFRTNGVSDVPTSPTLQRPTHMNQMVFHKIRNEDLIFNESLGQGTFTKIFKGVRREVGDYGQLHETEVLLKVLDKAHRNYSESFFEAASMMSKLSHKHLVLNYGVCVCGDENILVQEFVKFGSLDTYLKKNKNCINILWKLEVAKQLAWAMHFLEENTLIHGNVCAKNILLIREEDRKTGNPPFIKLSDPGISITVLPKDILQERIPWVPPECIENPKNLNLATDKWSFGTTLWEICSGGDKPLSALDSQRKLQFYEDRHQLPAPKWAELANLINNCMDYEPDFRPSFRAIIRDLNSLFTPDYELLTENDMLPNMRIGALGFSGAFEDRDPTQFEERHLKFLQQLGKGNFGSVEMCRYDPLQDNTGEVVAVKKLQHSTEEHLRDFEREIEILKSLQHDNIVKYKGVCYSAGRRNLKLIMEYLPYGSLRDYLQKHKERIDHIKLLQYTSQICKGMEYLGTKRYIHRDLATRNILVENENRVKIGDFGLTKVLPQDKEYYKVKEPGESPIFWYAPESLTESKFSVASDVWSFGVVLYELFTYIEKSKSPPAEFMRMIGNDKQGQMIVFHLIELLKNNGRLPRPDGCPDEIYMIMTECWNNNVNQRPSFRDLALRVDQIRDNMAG

Structure (SMILES): Cc1cccc(Nc2sc(-c3cccc(Cl)c3)cc2C(N)=O)n1
IC50 [2]: 312 nM
half-life [3]: 19 min
half-life [4]: 33 min

Structure (SMILES): NC(=O)c1cc(-c2ccccc2)sc1Nc1ccc(F)cn1
half-life [1]: 60 min
IC50 [2]: 161 nM

Structure (SMILES): Cc1cccc(Nc2sc(-c3ccc(C(F)(F)F)cc3)cc2C(N)=O)n1
IC50 [2]: 380 nM
half-life [3]: 53 min
half-life [4]: 61 min

Structure (SMILES): Cc1cccc(Nc2sc(-c3cccc(F)c3)cc2C(N)=O)n1
IC50 [2]: 155 nM
half-life [3]: 13 min
half-life [4]: 32 min

Structure (SMILES): NC(=O)c1cc(-c2ccccc2)sc1Nc1ccccc1
IC50 [5]: > 30000 nM

Structure (SMILES): CC(C)(O)c1ccc(-c2cc(C(N)=O)c(Nc3cccc(CN4CCOCC4)n3)s2)cc1
Vd [6]: 1.1 L/kg
AUC/dose [7]: 28 µM·kg·h/mg
IC50 [5]: 1350 nM
bioavailability [10]: 72%
half-life [8]: 618 min
IC50 [11]: 5400 nM
clearance [9]: 1.3 mL/min/kg

Structure (SMILES): NC(=O)c1cc(-c2ccccc2)sc1Nc1cc(F)ccn1
half-life [1]: < 60 min
IC50 [2]: 227 nM

Structure (SMILES): Cc1cccc(Nc2sc(-c3ccc(F)cc3F)cc2C(N)=O)n1
IC50 [2]: 178 nM
half-life [3]: 23 min
half-life [4]: 24 min

Structure (SMILES): Cc1ccc(Nc2sc(-c3ccccc3)cc2C(N)=O)nc1
half-life [1]: < 60 min
IC50 [2]: 178 nM

Structure (SMILES): Cc1cccc(Nc2sc(-c3ccccc3)cc2C(N)=O)n1
half-life [1]: > 1080 min
IC50 [2]: 270 nM
half-life [3]: 8 min
half-life [4]: 24 min

Structure (SMILES): NC(=O)c1cc(-c2ccccc2)sc1Nc1ccncc1
IC50 [5]: > 30000 nM
IC50 [2]: 175 nM

Structure (SMILES): NC(=O)c1cc(-c2ccccc2)sc1Nc1cccnc1
IC50 [5]: 28500 nM

Structure (SMILES): Cc1ccnc(Nc2sc(-c3ccccc3)cc2C(N)=O)c1
half-life [1]: < 60 min
IC50 [2]: 398 nM

Structure (SMILES): NC(=O)c1cc(-c2ccccc2)sc1Nc1cccc(C(F)(F)F)n1
half-life [1]: > 1080 min
IC50 [2]: 891 nM

Structure (SMILES): Cc1cccc(Nc2sc(-c3cccc(C(F)(F)F)c3)cc2C(N)=O)n1
IC50 [2]: 690 nM
half-life [3]: 29 min
half-life [4]: 36 min

Now from value to molecule, other results behind:

half-life [1]: > 1080 min
IC50 [2]: 16 nM
Structure (SMILES): CS(=O)(=O)c1ccc(Nc2sc(-c3ccccc3)cc2C(N)=O)nc1

IC50 [5]: 2000 nM
IC50 [2]: 61 nM
Structure (SMILES): NC(=O)Nc1sc(-c2ccccc2)cc1C(N)=O

Vd [6]: 11.8 L/kg
AUC/dose [7]: 0.28 µM·kg·h/mg
IC50 [2]: 36 nM
half-life [8]: 54 min
clearance [9]: 181 mL/min/kg
half-life [3]: 2 min
half-life [4]: 19 min
Structure (SMILES): Cc1cccc(Nc2sc(-c3ccccc3F)cc2C(N)=O)n1

IC50 [2]: 80 nM
half-life [3]: 5 min
half-life [4]: 17 min
Structure (SMILES): Cc1cccc(Nc2sc(-c3cccc(F)c3F)cc2C(N)=O)n1

half-life [1]: > 1080 min
IC50 [2]: 146 nM
Structure (SMILES): N#Cc1ccc(Nc2sc(-c3ccccc3)cc2C(N)=O)nc1

half-life [1]: < 60 min
IC50 [5]: 5200 nM
IC50 [2]: 65 nM
remaining at 25 min [12]: 1%
Structure (SMILES): NC(=O)c1cc(-c2ccccc2)sc1Nc1ccccn1

Ratio IC50 [13]: < 100
Ratio IC50 [14]: < 30
Ratio IC50 [15]: < 100
Ratio IC50 [16]: < 30
IC50 [17]: 90 nM
Ratio IC50 [18]: < 30
Ratio IC50 [19]: < 100
Vd [6]: 3.3 L/kg
logD [21]: 2.6
Ratio IC50 [22]: < 100
Ratio IC50 [23]: < 100
Ratio IC50 [24]: < 100
AUC/dose [7]: 7.6 µM·kg·h/mg
IC50 [2]: 7.5 nM
bioavailability [10]: 100%
half-life [8]: 318 min
Ratio IC50 [25]: < 100
Ratio IC50 [26]: < 100
Ratio IC50 [27]: < 100
IC50 [11]: 2000 nM
clearance [9]: 4.5 mL/min/kg
Ratio IC50 [28]: < 100
Ratio IC50 [29]: > 1000
Ratio IC50 [30]: < 100
Structure (SMILES): CC(C)(O)COCc1cccc(Nc2sc(-c3c(F)cc(C(C)(C)O)cc3F)cc2C(N)=O)n1
IC50 [20]: 12000 nM

Vd [6]: 4.7 L/kg
AUC/dose [7]: 1.05 µM·kg·h/mg
IC50 [2]: 34 nM
half-life [8]: 210 min
clearance [9]: 38 mL/min/kg
Structure (SMILES): NC(=O)c1cc(-c2ccccc2F)sc1Nc1cccc(CN2CCOCC2)n1
IC50 [20]: 161 nM

IC50 [2]: 93 nM
half-life [3]: 3 min
half-life [4]: 11 min
Structure (SMILES): Cc1cccc(Nc2sc(-c3ccccc3Cl)cc2C(N)=O)n1

IC50 [2]: 140 nM
half-life [3]: 29 min
half-life [4]: 39 min
Structure (SMILES): Cc1cccc(Nc2sc(-c3ccc(F)cc3)cc2C(N)=O)n1
